{
  "source": "patent US6022495A",
  "about": "“Photochromic benzopyrano-fused naphthopyrans” (Transitions Optical, Inc., priority 1998, dated 2000)",
  "key": {"[1]": {"test": "Photochromic response of polymer test squares on an optical bench", "type": "physicochemical", "conditions": "for ΔOD @ Saturation: UV exposure continued for 15 minutes; for ΔOD @ Saturation / Sensitivity ΔOD/min: 72° F. (22.2° C.); for Sensitivity ΔOD/min: first five (5) seconds of UV exposure, expressed per minute; for Bleach Rate T 1/2: time for absorbance of activated form to reach one half the highest absorbance at room temperature (72° F.) after removal of activating light", "description": "(§1) Testing was done with the photochromic compounds prepared in Examples 1-11 in the following manner. A quantity of each photochromic compound calculated to yield a 1.5×10^-3 molal solution was added to a flask containing 50 grams of a monomer blend of 4 parts ethoxylated bisphenol A dimethacrylate (BPA 2EO DMA), 1 part poly(ethylene glycol) 600 dimethacrylate, and 0.033 weight percent 2,2'-azobis(2-methyl propionitrile) (AIBN). Each photochromic compound was dissolved into the monomer blend by stirring and gentle heating. After a clear solution was obtained, it was poured into a flat sheet mold having the interior dimensions of 2.2 mm×6 inches (15.24 cm)×6 inches (15.24 cm). The mold was sealed and placed in a horizontal air flow, programmable oven programmed to increase the temperature from 40° C. to 95° C. over […], hold the temperature at 95° C. for 3 hours, lower it to 60° C. over a 2 hour interval and then hold at 60° C. for 16 hours. After the mold was opened, the polymer sheet was cut using a diamond blade saw into 2 inch (5.1 centimeters) test squares.\nThe photochromic test squares prepared in Part A were tested for photochromic response on an optical bench. Prior to testing on the optical bench, the photochromic test squares were exposed to 365 nanometer ultraviolet light for about 15 minutes to activate the photochromic compounds and then placed in a 76° C. oven for about 15 minutes to bleach or inactivate the photochromic compounds. The test squares were then cooled to room temperature, exposed to fluorescent room lighting for at least 2 hours and then kept covered for at least 2 hours prior to testing on an optical bench maintained at 72° F. (22.2° C.). The bench was fitted with a 150 watt Xenon arc lamp, a remote controlled shutter, a copper sulfate bath acting as a heat sink for the arc lamp, a Schott WG-320 nm cut-off filter which removes short wavelength radiation; neutral density filter(s) and a sample holder in which the square to be tested was inserted. The power output of the optical bench, i.e., the dosage of light that the sample lens would be exposed to, was calibrated with a photochromic test square used as a reference standard. […] The UV-A detector was placed into the sample holder and the light output was measured. Adjustments to the power output were made by increasing or decreasing the lamp wattage or by adding or removing neutral density filters in the light path.\nA monitoring, collimated beam of light from a tungsten lamp was passed through the square at a small angle (approximately […]) normal to the square. After passing through the square, the light from the tungsten lamp was directed to a detector through Spectral Energy Corp. GM-200 monochromator set at the previously determined visible lambda max of the photochromic compound being measured. The output signals from the detector were processed by a radiometer.\nChange in optical density (ΔOD) was determined by inserting a test square in the bleached state into the sample holder, adjusting the transmittance scale to 100%, opening the shutter from the Xenon lamp to provide ultraviolet radiation to change the test square from the bleached state to an activated (i.e., darkened) state, measuring the transmittance in the activated state, and calculating the change in optical density according to the formula: ΔOD=log(100/% Ta), where % Ta is the percent transmittance in the activated state and the logarithm is to the base 10.\nThe Δ OD/min, which represents the sensitivity of the photochromic compound's response to UV light, was measured over the first five (5) seconds of UV exposure, then expressed on a per minute basis. The saturation optical density (Δ OD@ Saturation) was taken under identical conditions as the Δ OD/min, except UV exposure was continued for 15 minutes. […]"}, "[2]": {"test": "Visible lambda max of the activated form in polymer test squares (Varian Cary 3 UV-Visible spectrophotometer)", "type": "physicochemical", "conditions": "activated (colored) form in test square of BPA 2EO DMA / poly(ethylene glycol) 600 dimethacrylate, 1.5×10^-3 molal", "description": "as §1\nThe Δ OD/min, which represents the sensitivity of the photochromic compound's response to UV light, was measured over the first five (5) seconds of UV exposure, then expressed on a per minute basis. The saturation optical density (Δ OD@ Saturation) was taken under identical conditions as the Δ OD/min, except UV exposure was continued for 15 minutes. The lambda max (Vis) is the wavelength in nanometers (nm) in the visible spectrum at which the maximum absorption of the activated (colored) form of the photochromic compound in a test square occurs. The lambda max (Vis) wavelength was determined by testing the photochromic test square polymerizates of Part A in a Varian Cary 3 UV-Visible spectrophotometer. The Bleach Rate (T 1/2) is the time interval in seconds for the absorbance of the activated form of the photochromic compound in the test squares to reach one half the highest absorbance at room temperature (72° F., 22.20C.) after removal of the source of activating light."}},
  "data": [
    {"smiles": "COc1ccc(C2(c3ccc(N4CCOCC4)cc3)C=Cc3c4c(c5ccccc5c3O2)-c2ccccc2C(C)(C)O4)cc1", "note": "(centres unmarked) [Compound 4, 10,10-dimethyl-6-(4-methoxyphenyl)-6-(4-morpholinophenyl)-6,10-dihydro[2]benzopyrano[3',4':3,4]naphtho(1,2-b)pyran]", "values": [
      {"measurement": "ΔOD @ Saturation", "setting": "[1]; listed as 4A", "value": 0.23},
      {"measurement": "ΔOD @ Saturation", "setting": "[1]; listed as 4B", "value": 0.19},
      {"measurement": "Sensitivity ΔOD/min", "setting": "[1]; listed as 4A", "value": "0.18 ΔOD/min"},
      {"measurement": "Sensitivity ΔOD/min", "setting": "[1]; listed as 4B", "value": "0.12 ΔOD/min"},
      {"measurement": "Bleach Rate T 1/2", "setting": "[1]; listed as 4A", "value": 68, "unit": "s"},
      {"measurement": "Bleach Rate T 1/2", "setting": "[1]; listed as 4B", "value": 61, "unit": "s"},
      {"measurement": "lambda max (Vis)", "setting": "[2]; listed as 4A", "value": 598, "unit": "nanometers"},
      {"measurement": "lambda max (Vis)", "setting": "[2]; listed as 4B", "value": 472, "unit": "nanometers"}
    ]},
    {"smiles": "COc1ccc(C2(c3ccc(OC)cc3)C=Cc3c(c4c5cc(OC)c(OC)cc5c(=O)oc4c4ccccc34)O2)cc1", "note": "[Compound 6A, 2,2-bis(4-methoxyphenyl)-12,13-dimethoxy-10-oxo-2,10-dihydro[2]benzopyrano[4',3':3,4]naphtho(2,1-b)pyran]", "values": [
      {"measurement": "ΔOD @ Saturation", "setting": "[1]", "value": 0.13},
      {"measurement": "Sensitivity ΔOD/min", "setting": "[1]", "value": "0.19 ΔOD/min"},
      {"measurement": "Bleach Rate T 1/2", "setting": "[1]", "value": 28, "unit": "s"},
      {"measurement": "lambda max (Vis)", "setting": "[2]", "value": 477, "unit": "nanometers"}
    ]},
    {"smiles": "O=c1oc2c3ccc4c(c3ccc2c2ccccc12)C=CC(c1ccccc1)(c1ccccc1)O4", "note": "[Compound 11, 3,3-diphenyl-8-oxo-3,8-dihydro[2]benzopyrano[3',4':5,6]naphtho(2,1-b)pyran]", "values": [
      {"measurement": "ΔOD @ Saturation", "setting": "[1]", "value": 0.02},
      {"measurement": "Sensitivity ΔOD/min", "setting": "[1]", "value": "0.12 ΔOD/min"},
      {"measurement": "lambda max (Vis)", "setting": "[2]", "value": 466, "unit": "nanometers"}
    ]},
    {"smiles": "COc1ccc(C2(c3ccc(OC)cc3)C=Cc3c(c4c5ccccc5c(=O)oc4c4ccccc34)O2)cc1", "note": "[Compound 1A, 2,2-bis(4-methoxyphenyl)-10-oxo-2,10-dihydro[2]benzopyrano[4',3':3,4]naphtho(2,1-b)pyran]", "values": [
      {"measurement": "ΔOD @ Saturation", "setting": "[1]", "value": 0.14},
      {"measurement": "Sensitivity ΔOD/min", "setting": "[1]", "value": "0.29 ΔOD/min"},
      {"measurement": "Bleach Rate T 1/2", "setting": "[1]", "value": 18, "unit": "s"},
      {"measurement": "lambda max (Vis)", "setting": "[2]", "value": 493, "unit": "nanometers"}
    ]},
    {"smiles": "COc1ccc(C2(c3ccccc3)C=Cc3c4c(c5ccccc5c3O2)-c2cc(OC)c(OC)cc2C(C)(C)O4)cc1", "note": "(centres unmarked) [Compound 8, 6-(4-methoxyphenyl)-6-phenyl-12,13-dimethoxy-10,10-dimethyl-6,10-dihydro[2]benzopyrano [3',4':3,4]naphtho(1,2-b)pyran]", "values": [
      {"measurement": "ΔOD @ Saturation", "setting": "[1]", "value": 0.21},
      {"measurement": "Sensitivity ΔOD/min", "setting": "[1]", "value": "0.08 ΔOD/min"},
      {"measurement": "Bleach Rate T 1/2", "setting": "[1]", "value": 216, "unit": "s"},
      {"measurement": "lambda max (Vis)", "setting": "[2]", "value": 602, "unit": "nanometers"}
    ]},
    {"smiles": "O=c1oc2ccccc2c2c1c1c(c3ccccc32)OC(c2ccccc2)(c2ccccc2)C=C1", "note": "[Compound 10, 6,6-diphenyl-9-oxo-6,9-dihydro[1]benzopyrano[3',4':3,4]naphtho(1,2-b)pyran]", "values": [
      {"measurement": "ΔOD @ Saturation", "setting": "[1]", "value": 0.26},
      {"measurement": "Sensitivity ΔOD/min", "setting": "[1]", "value": "0.69 ΔOD/min"},
      {"measurement": "Bleach Rate T 1/2", "setting": "[1]", "value": 19, "unit": "s"},
      {"measurement": "lambda max (Vis)", "setting": "[2]", "value": 484, "unit": "nanometers"}
    ]},
    {"smiles": "COc1ccc(C2(c3ccc(OC)cc3)C=Cc3c(c4c5ccc(OC)cc5c(=O)oc4c4ccccc34)O2)cc1", "note": "[Compound 9A, 2,2-bis(4-methoxyphenyl)-12-methoxy-10-oxo-2,10-dihydro[2]benzopyrano[4',3':3,4]naphtho(2,1-b)pyran]", "values": [
      {"measurement": "ΔOD @ Saturation", "setting": "[1]", "value": 0.12},
      {"measurement": "Sensitivity ΔOD/min", "setting": "[1]", "value": "0.25 ΔOD/min"},
      {"measurement": "Bleach Rate T 1/2", "setting": "[1]", "value": 24, "unit": "s"},
      {"measurement": "lambda max (Vis)", "setting": "[2]", "value": 478, "unit": "nanometers"}
    ]},
    {"smiles": "COc1ccc(C2(c3ccc(OC)cc3)C=Cc3c(c4ccccc4c4c3oc(=O)c3cc(OC)c(OC)cc34)O2)cc1", "note": "[Compound 6B, 6,6-bis(4-methoxyphenyl)-12,13-dimethoxy-10-oxo-6,10-dihydro[2]benzopyrano[3',4':3,4]naphtho(1,2-b)pyran]", "values": [
      {"measurement": "ΔOD @ Saturation", "setting": "[1]", "value": 0.10},
      {"measurement": "Sensitivity ΔOD/min", "setting": "[1]", "value": "0.22 ΔOD/min"},
      {"measurement": "Bleach Rate T 1/2", "setting": "[1]", "value": 32, "unit": "s"},
      {"measurement": "lambda max (Vis)", "setting": "[2]", "value": 569, "unit": "nanometers"}
    ]}
  ]
}
